“Also recorded” adds a separate entry of the source.
Key:
[1] = system: Jurkat T cell leukemia cells; experiment: Viability of Jurkat T cell leukemia cells treated with RSL3; type: cell-based; conditions: various doses, 24 hours treatment
IRF = IRF reporter activity in THP1-Dual monocytes co-cultured with treated A20 cells; type: cell-based, human; conditions: A20 cells treated 24 hours, then co-culture with THP1-Dual cells 24 hours
Procedure: (§1) A20 B-cell leukemia cells were treated with either control (DMSO) or various doses of RSL3, for 24 hours prior to co-culture with THP1-Dual cells for an additional 24 hours. RSL3 was purchased from Selleckchem (Houston, Tex.) and dissolved in DMSO. Subsequently, the THP1 supernatants were assessed for NFKB or IRF reporter activity. A20 cells were acquired from ATCC and THP1-Dual cells acquired from InvivoGen (San Diego, Calif.). Both cell types were cultured in 96-well plates for the duration of the assay. 50,000 A20 cells were plated 24 hours prior to dosing with RSL3, with a final DMSO concentration of 0.5%. 24 hours post-treatment, THP1-Dual cells (25,000 cells/well) were added to the A20 cells. 24 hours later, 30 μl of supernatant was mixed with either 200 μl QuantiBlue (InvivoGen, San Diego, Calif.) or 50 μl QuantiLuc and absorbance or luminescence was recorded on a Molecular Devices plate reader.

[2] = system: Caki-1 renal cell carcinoma cells; experiment: Viability of Caki-1 renal cell carcinoma cells treated with ferroptosis inducer, with or without Ferrostatin-1; type: cell-based; conditions: various doses, 24 hours treatment
NFKB [3] = experiment: NFKB reporter activity in THP1-Dual monocytes co-cultured with treated A20 cells; type: cell-based, human; conditions: A20 cells treated 24 hours, then co-culture with THP1-Dual cells 24 hours
Procedure: A20 B-cell leukemia cells were treated with either control (DMSO) or various doses of RSL3, for 24 hours prior to co-culture with THP1-Dual cells for an additional 24 hours. RSL3 was purchased from Selleckchem (Houston, Tex.) and dissolved in DMSO. Subsequently, the THP1 supernatants were assessed for NFKB or IRF reporter activity.
A20 cells were acquired from ATCC and THP1-Dual cells acquired from InvivoGen (San Diego, Calif.). Both cell types were cultured in 96-well plates for the duration of the assay. 50,000 A20 cells were plated 24 hours prior to dosing with RSL3, with a final DMSO concentration of 0.5%. 24 hours post-treatment, THP1-Dual cells (25,000 cells/well) were added to the A20 cells. 24 hours later, 30 μl of supernatant was mixed with either 200 μl QuantiBlue (InvivoGen, San Diego, Calif.) or 50 μl QuantiLuc and absorbance or luminescence was recorded on a Molecular Devices plate reader.
A20 lymphoma cells were treated with various doses (e.g. 0.002, 0.005, 0.014, 0.041, 0.123, 0.370, 1.111, 3.333 and 10 μM) of a GPX4 inhibitor (RSL3, ML162 or ML210) in the presence or absence of 1 μM Ferrostatin-1 for 24 hours. ML162 was purchased from Cayman Chemical Company Inc and resuspended in DMSO. ML210 was purchased from Sigma-Aldrich and resuspended in DMSO. A20 lymphoma cells were also treated with DMSO as a negative control. After treatment with DMSO or a GPX4 inhibitor for 24 hours, the A20 lymphoma cells were co-cultured with THP1-Dual cells for an additional 24 hours. Subsequently, the THP1 supernatant was assessed for NFKB reporter activity. A20 cells were acquired from ATCC and THP1-Dual cells were acquired from InvivoGen (San Diego, Calif.). Both cell types were cultured in 96-well plates for the duration of the assay.

[4] = system: A20 B-cell leukemia cells; experiment: Viability of A20 cells treated with GPX4 inhibitor, with or without Ferrostatin-1; type: cell-based; conditions: various doses, 24 hours treatment
NFKB [5] = experiment: NFKB reporter activity in THP1-Dual monocytes co-cultured with treated Jurkat cells; type: cell-based, human; conditions: Jurkat cells treated 24 hours, then co-culture with THP1-Dual cells 24 hours
Procedure: as §1, with “Jurkat T cell” for “A20 B-cell”, “Jurkat” for “A20”, “100,000 Jurkat” for “50,000 A20”

NFKB [6] = experiment: NFKB reporter activity in THP1-Dual monocytes co-cultured with treated Caki-1 cells; type: cell-based, human; conditions: Caki-1 cells treated 24 hours, then co-culture with THP1-Dual cells 24 hours
Procedure: Caki-1 renal cell carcinoma cells were treated with either control (DMSO) or various doses of Erastin, for 24 hours prior to co-culture with THP1-Dual cells for an additional 24 hours. Erastin was purchased from Selleckchem (Houston, Tex.) and dissolved in DMSO. Subsequently, the THP1 supernatants were assessed for NFKB or IRF reporter activity. Caki-1 cells were acquired from ATCC and THP1-Dual cells acquired from InvivoGen (San Diego, Calif.). Both cell types were cultured in 96-well plates for the duration of the assay. 7.500 Caki-1 cells were plated 24 hours prior to dosing with Erastin, with a final DMSO concentration of 0.5%. 24 hours post-treatment, THP1-Dual cells (25,000 cells/well) were added to the Caki-1 cells. 24 hours later, 30 μl of supernatant was mixed with either 200 μl QuantiBlue (InvivoGen) or 50 μl QuantiLuc and absorbance or luminescence was recorded on a Molecular Devices plate reader. Caki-1 renal cell carcinoma cells were treated with either control (DMSO) or various doses of RSL3, for 24 hours prior to co-culture with THP1-Dual cells for an additional 24 hours. RSL3 was purchased from Selleckchem and dissolved in DMSO. Subsequently, the THP1 supernatants were assessed for NFKB or IRF reporter activity. Caki-1 cells were acquired from ATCC and THP1-Dual cells acquired from InvivoGen (San Diego, Calif.). Both cell types were cultured in 96-well plates for the duration of the assay. 7.500 Caki-1 cells were plated 24 hours prior to dosing with […], with a final DMSO concentration of 0.5%. 24 hours post-treatment, THP1-Dual cells (25,000 cells/well) were added to the Caki-1 cells. 24 hours later, 30 μl of supernatant was mixed with either 200 μl QuantiBlue (InvivoGen, San Diego, Calif.) or 50 μl QuantiFuc and absorbance or luminescence was recorded on a Molecular Devices plate reader. […] Subsequently, the THP1 supernatant was assessed for NFKB reporter activity. […]

COC(=O)c1ccc([C@H]2c3[nH]c4ccccc4c3C[C@H](C(=O)OC)N2C(=O)CCl)cc1 [RSL3]
viability of Jurkat T cell leukemia cells [1]: negatively affected the viability
IRF signaling in THP1 monocytes (IRF): elicited
viability of Caki-1 cells [2]: negatively affected the viability; also recorded: decreased viability of the cells in a dose dependent manner
NFKB signaling in THP1 monocytes (NFKB [3]): elicited NFKB; also recorded: increased NFKB activity in THP1 cells in a dose dependent manner
viability of A20 cells [4]: negatively affected the viability; also recorded: decreased viability of the cells in a dose dependent manner
NFKB signaling in THP1 monocytes (NFKB [5]): elicited NFKB signaling
NFKB signaling in THP1 monocytes (NFKB [6]): elicited NFKB signaling; also recorded: increased NFKB activity in THP1 cells in a dose dependent manner

From US20210283091A1, “DECREASING IMMUNE ACTIVITY THROUGH MODULATION OF POSTCELLULAR SIGNALING FACTORS” (FLAGSHIP PIONEERING INNOVATIONS V, INC., priority 2018, published 2021)
